According to patent US6037333A, “Microbe-inhibiting compositions” (Trustees of Tufts College, priority 1998, dated 2000):
“Also recorded” adds a separate entry of the source.

What was measured:
Acanthamoeba [1] = assay: Acanthamoeba-induced cytopathic effect (CPE) assay, immortalized corneal epithelial cultures; type: cell-based; settings: for Inhibition of amoeba-induced CPE: no concentration stated
Description: Corneal epithelial cells with extended life span were also produced.
(§1) To characterize the role of carbohydrate-mediated host-parasite interactions in the Acanthamoeba-induced cytotoxicity of host cells, in vitro cytopathic assays were performed using both primary and immortalized cultures of corneal epithelium as host cells. Immortalized cells were assayed as confluent cultures in 24-well plates, and primary cells were assayed as confluent cells in 35-mm dishes or 6-well plates.
(§2) The plates were incubated at 37° C. in a CO2 incubator and periodically examined under a phase-contrast microscope for the presence of cell-free plaques in the monolayer for up to 28-30 hours. Control wells contained host cells without the parasites. At the end of the incubation period, the cultures were stained with Giemsa (Diff-Quik, Dade Diagnostic Inc., Aguada, PR). Approximate cell density in each well was estimated by scanning the stained plates in a calibrated, computer-assisted Bio-Image Scanner (Millipore, Ann Arbor, Mich.). Cytopathic effect (CPE) was expressed as percentage of the optical density by the following formula: [formula]
The CPE assays were performed in the SFB media containing one or more saccharides to be tested.
After staining with Giemsa, percent cell loss in each well was calculated based on the optical density in each well.

Acanthamoeba [2] = assay: Acanthamoeba-induced CPE assay, primary cultures of corneal epithelium; type: cell-based; settings: primary cultures as target cells
Description: In vitro cytopathic assays were performed using cell cultures of corneal epithelium as target cells. Primary cell cultures of rabbit corneal epithelium were prepared according to published protocols (M. M. Jumblatt, Invest. Opthalmol. Visual Sci. 24:1139-43, 1983) using rabbit eyes from Pel-Freez Biologicals (N. Panjwani et al., Invest. Opthalmol. Visual Sci. 31:689-695, 1990) (Rogers, AK). Generally, seventy-five eyes were processed at a time. Primary cultures have limited life span and can only be passaged 2 to 3 times without significant alteration in cell morphology.
as §1
as §2, with “The parasites (>95% trophozoites) were rinsed three times in a serum-free Eagle's minimum essential medium supplemented with 0.4% bovine serum albumin (SFB) and aliquots of the parasite suspension (0.2×10^5 to 1×10^6 parasites/ml SFB medium, 300 μl/well for 24-well plates and 500 μl/well for 6-well plates or 35-mm dishes) were added to wells of confluent epithelial cultures which had been rinsed and preincubated in SFB medium for 2 hours. The” for “The”
Primary cultures were less susceptible to amoeba-induced CPE, requiring 1×10^6 parasites/ml to completely destroy the monolayer within 24 hours. This parasite concentration was five times higher than that required to produce the same effect when immortalized cultures were used as target host cells.

[3] = target: mannose binding protein (MBP) of Acanthamoeba (Acanthamoeba castellanii, UniProt Q6J288); assay: Solid-phase assay of 35S-labeled Acanthamoeba binding to Man-BSA coated wells; parameters: species or system Acanthamoeba strain MEEI 0184 (A. castellani); settings: for Inhibition of amoebic binding to Man-BSA / affinity of amoebic lectin: no concentration stated; for Inhibition of Acanthamoeba binding to Man-BSA: at 100 mM
From the text: The Acanthamoeba strain MEEI 0184 (A. castellani based on morphological characteristics) was derived from an infected human cornea and used throughout this study. ATCC strain 30868 should have similar properties. The parasites were axenically cultured in PYG medium. A solid-phase assay characterized the sugar binding properties of the mannose binding protein (MBP) of Acanthamoeba (Z. Yang et al., Infect. Immun. 65:439-445, 1997). Briefly, wells of microtiter plates were coated with bovine serum albumin-α-D-mannopyranosyl phenylisothiocyanate (Man-BSA, 15-25 moles of α-D-mannopyranoside/mole albumin, 0.03 μg/ml, 50μl/well in 0.1 M sodium carbonate buffer, pH 9.6, 4° C. overnight). Nonspecific binding was blocked with 1% BSA in phosphate buffered saline (PBS, 1 hour, room temperature). After adding a 50-μl aliquot of ^35 S-labeled Acanthamoeba (5×10^6 cells/ml in PBS; 1 to 2 cpm/parasite, >95% trophozoites) to each well, the plates were incubated for 2 hours at room temperature. After rinsing the cells with PBS to remove unbound Acanthamoeba, 0.1 ml of 2% sodium dodecyl sulfate (SDS) was added to each well, and the radioactivity in aliquots of solubilized material was determined in a scintillation counter.

[4] = target: proteinases P1, P2, P3, P4; assay: Zymography with proteinase inhibitors, components P1-P4; type: biochemical, Acanthamoeba; settings: inhibitor 1 mM
Description: (§3) To characterize the mechanism by which the mannose-mediated host-parasite interactions influence the amoeba-induced cytolysis and/or cytopathic effect, conditioned media obtained by incubating amoebae with primary cultures of corneal epithelium in the presence and absence of α-Man for 6 to 8 hours were analyzed by zymography. Media conditioned by only Acanthamoeba or only epithelial cells were also analyzed. Zymography was performed using separating gels containing 10% acrylamide and 2 mg/ml gelatin, essentially as described by D. E. Kleiner et al. (Anal Biochem. 218:325-329, 1994). Samples were diluted in the electrophoresis sample buffer (U. K. Laemmli, Nature 227:680-685, 1970) without mercaptoethanol and were applied to the gels. After electrophoresis, proteinases separated on the gels were renatured by incubating the gels in 2.5% Triton X-100 in 50 mM Tris-HCl, pH 7.5 to remove SDS. After incubating the gels for 18 hours in a developing buffer (50 mM Tris-HCl, pH 7.5 containing 10 mM CaCl2), the gels were stained with Coomassie brilliant blue. Areas of digestion were visualized as non-staining regions. In some experiments, samples were pre-treated with phenylmethylsulfonyl fluoride (PMSF, 1 mM), an inhibitor of […] for one hour prior to electrophoresis, or 1,10-phenanthroline (1 mM), an inhibitor of metalloproteinases, was added to the developing buffer.

proteinases E1, E2 = assay: Zymography with proteinase inhibitors, media conditioned by epithelial cells alone; type: biochemical, rabbit; settings: inhibitor 1 mM
Description: as §3

Sequence of mannose binding protein (MBP) of Acanthamoeba (Q6J288 entry or part of it): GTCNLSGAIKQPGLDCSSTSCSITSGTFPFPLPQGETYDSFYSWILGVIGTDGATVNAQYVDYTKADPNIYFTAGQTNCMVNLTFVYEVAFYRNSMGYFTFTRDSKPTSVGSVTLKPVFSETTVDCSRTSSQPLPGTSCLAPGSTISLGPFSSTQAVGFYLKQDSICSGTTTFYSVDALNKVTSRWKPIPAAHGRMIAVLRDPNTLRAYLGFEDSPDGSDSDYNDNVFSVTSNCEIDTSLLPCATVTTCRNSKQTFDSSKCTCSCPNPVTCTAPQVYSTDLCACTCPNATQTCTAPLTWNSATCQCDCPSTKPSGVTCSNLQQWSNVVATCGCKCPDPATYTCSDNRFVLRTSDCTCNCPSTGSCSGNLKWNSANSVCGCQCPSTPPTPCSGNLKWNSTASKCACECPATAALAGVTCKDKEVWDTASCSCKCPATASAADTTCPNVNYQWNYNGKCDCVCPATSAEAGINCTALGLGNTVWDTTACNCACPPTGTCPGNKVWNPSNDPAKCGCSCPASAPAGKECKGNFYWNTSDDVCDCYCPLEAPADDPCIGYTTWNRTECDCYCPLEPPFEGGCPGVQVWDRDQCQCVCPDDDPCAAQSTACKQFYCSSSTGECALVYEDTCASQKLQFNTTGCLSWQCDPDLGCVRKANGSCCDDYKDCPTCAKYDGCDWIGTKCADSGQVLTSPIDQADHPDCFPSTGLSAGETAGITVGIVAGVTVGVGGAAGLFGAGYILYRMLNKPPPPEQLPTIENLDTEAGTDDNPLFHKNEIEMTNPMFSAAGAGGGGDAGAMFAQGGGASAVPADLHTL

OCC1OC(OC2C(O)C(CO)OC(OCC3OC(OC4C(O)C(CO)OC(OCC5OC(O)C(O)C(O)C5O)C4O)C(O)C(O)C3O)C2O)C(O)C(O)C1O (stereo not drawn) [Man(α1-3)Man(α1-6)Man-(α1-3)Man(α1-6)Man] was tested, and the “Inhibition of amoeba-induced CPE” value (Acanthamoeba [1]) was “potent inhibitors”, the “Inhibition of amoeba-induced CPE” value (Acanthamoeba [2]) was “inhibited CPE” and the “Inhibition of amoebic binding to Man-BSA / affinity of amoebic lectin” value [3] was “potent inhibitors”.

In the case of CO[C@H]1O[C@H](CO)[C@H](O)[C@H](O)[C@H]1O [methyl-α-D-galactopyranoside], the “Inhibition of amoeba-induced cytopathic effect” value (Acanthamoeba [1]; at 100 mM) was “did not inhibit”, the “Inhibition of amoeba-induced CPE” value (Acanthamoeba [1]) was “did not inhibit” and the “Inhibition of amoeba-induced CPE” value (Acanthamoeba [2]) was “did not inhibit CPE”. For the same molecule, the “Inhibition of Acanthamoeba binding to Man-BSA” value [3] was “did not inhibit” and the “Inhibition of amoebic binding to Man-BSA / affinity of amoebic lectin” value [3] was “did not inhibit”.

c1cnc2c(c1)ccc1cccnc12 [1,10-phenanthroline] was tested, and the “Susceptibility of component P1 (230 kD) to inhibitor” value [4] was “resistant”, the “Susceptibility of component P2 (97 kD) to inhibitor” value [4] was “resistant” and the “Susceptibility of component P3 (80 kD) to inhibitor” value [4] was “susceptible”. The “Susceptibility of component P4 (55 kD) to inhibitor” value [4] was “resistant”, the “Susceptibility of component E1 (93 kD) to inhibitor” value (proteinases E1, E2) was “susceptible” and the “Susceptibility of component E2 (63 kD) to inhibitor” value (proteinases E1, E2) was “susceptible”.

For CO[C@@H]1O[C@H](CO)[C@H](O)[C@H](O)[C@H]1O [methyl-β-D-galactopyranoside], the “Inhibition of amoeba-induced cytopathic effect” value (Acanthamoeba [1]; at 100 mM) was “did not inhibit”, the “Inhibition of amoeba-induced CPE” value (Acanthamoeba [1]) was “did not inhibit” and the “Inhibition of amoeba-induced CPE” value (Acanthamoeba [2]) was “did not inhibit CPE”. For the same molecule, the “Inhibition of Acanthamoeba binding to Man-BSA” value [3] was “did not inhibit” and the “Inhibition of amoebic binding to Man-BSA / affinity of amoebic lectin” value [3] was “did not inhibit”.

For O=S(=O)(F)Cc1ccccc1 [PMSF, phenylmethylsulfonyl fluoride], the “Susceptibility of component P1 (230 kD) to inhibitor” value [4] was “susceptible”, the “Susceptibility of component P2 (97 kD) to inhibitor” value [4] was “susceptible” and the “Susceptibility of component P3 (80 kD) to inhibitor” value [4] was “resistant”. For the same molecule, the “Susceptibility of component P4 (55 kD) to inhibitor” value [4] was “susceptible”, the “Susceptibility of component E1 (93 kD) to inhibitor” value (proteinases E1, E2) was “resistant” and the “Susceptibility of component E2 (63 kD) to inhibitor” value (proteinases E1, E2) was “resistant”.

With C[C@@H]1O[C@@H](O)[C@@H](O)[C@H](O)[C@@H]1O [α-L-Fucose] the inhibition at 100000 µM (Acanthamoeba [1]; Acanthamoeba, in Oryctolagus cuniculus, at 100 mM, read-out: Inhibition of cytopathic effect (% inhib. at indicated conc.)) was 40%, the “Inhibition of amoeba-induced CPE” value (Acanthamoeba [1]) was “poor inhibitors; also recorded: weak inhibitor” and the “Inhibition of amoeba-induced CPE” value (Acanthamoeba [2]) was “not inhibitory”. For the same molecule, the “Inhibition of amoebic binding to Man-BSA / affinity of amoebic lectin” value [3] was “poor inhibitors; also recorded: weak inhibitor” and the “Inhibition of amoebic binding to Man-BSA / affinity of amoebic lectin” value ([3]; listed as α-fucose) was “weak inhibitors”.

In the case of OCC1OC(OC2C(O)C(CO)OC(OCC3OC(O)C(O)C(O)C3O)C2O)C(O)C(O)C1O (stereo not drawn) [Man(α1-3)Man(α1-6)Man], the inhibition at 310 µM (Acanthamoeba [1]; Acanthamoeba, in Oryctolagus cuniculus, at 0.31 mM, read-out: Inhibition of cytopathic effect (% inhib. at indicated conc.)) was 100%, the “Inhibition of amoeba-induced CPE” value (Acanthamoeba [1]) was “potent inhibitors” and the “Inhibition of amoeba-induced CPE” value (Acanthamoeba [2]) was “inhibited CPE”. The “Inhibition of amoebic binding to Man-BSA / affinity of amoebic lectin” value [3] was “potent inhibitors”.
